Reference: US11311598B2, “Peptides and analogs for use in the treatment of oral mucositis” (Soligenix, Inc., priority 2013, dated 2022)
Where no end group is shown, it is not given here.

Legend:
MRSA (strain USA300) = assay: MRSA bacteremia model in nu/nu mice lacking T-cells; type: in vivo, mouse; settings: female nu/nu mice, single dose 50 mg/kg IV 4 h prior to infection; 14 days
Method: RIVPA (SEQ ID NO. 5) is also effective when administered by itself. Multiple studies with IV administered RIVPA (SEQ ID NO. 5) were conducted in a MRSA bacteremia model. […] In the first study, MRSA (USA300, 7.3 log 10 cfu) was administered via IV injection into the tail vein of female Balb/c mice at time 0. Four hours prior to infection, a single dose of saline or RIVPA (SEQ ID NO. 5) at the indicated dose levels was injected IV into the tail vein. Sub-optimal antibiotic treatment (linezolid, 6.25 mg/kg) was administered once orally immediately after infection. Survival was monitored for 21 days after the infection. In the second study, RIVPA (SEQ ID NO. 5) (IV) or saline (IV) was administered once 4 h prior to infection with MRSA (strain USA300, 7.0 log10 cfu) via the tail vein into female nu/nu mice. Statistically significant differences (i.e., p≤05) in survival were found with the 50 mg/kg dose level as assessed using Kaplan Meier analysis of each treatment group relative to the saline control.

mouse tongue epithelium = assay: prevention of radiation-induced mucositis (25 Gy to the mouse snout); type: in vivo; settings: 25 Gy to mouse snout Day 0; 5 doses of 25 mg/kg IV every second day
Method: RIVPA (SEQ ID NO. 5) and other IDRs modulate the innate defense response to tissue injury, reducing the severity of damage caused by the inflammatory cascade and enhancing resolution of disease. As described above, IDRs can mitigate the response to radiation damage in an oral mucositis model (FIG. 1, FIG. 2). […] Progressive thinning of the mouse tongue was assessed on Days 0, 2, 4, 6, 8, and 10 by histopathological analysis of the number of basal and suprabasal apoptotic, mitotic and total epithelial cells per unit area and per unit length. It is noted that the dose of radiation used (25 Gy) was chosen such that progressive thinning of the tongue epithelium was observed but no overt mucositis occurred.

## RIVPA-NH2 [RIVPA (SEQ ID NO. 5), RIVPA]
MRSA (strain USA300)
  survival over the saline control: statistically significant enhanced survival
Mouse tongue epithelium
  disease progression (progressive thinning of the mouse tongue): did not have any significant impact
